Six molecules from patent US20230140290A1, “SALICYLAMIDE DERIVATIVES AND RELATED METHODS OF MAKING” (THE BOARD OF REGENTS OF THE UNIVERSITY OF TEXAS SY, priority 2020, published 2023) can be followed below.

Type in all cases: cell-based, HAdV-5
Assay [1] concerns wild-type HAdV5. The assay is described as follows: HAdV DNA quantification by real-time PCR (DNA replication). To be noted: 24 h. As for the experimental part: DNA Quantification by Real-Time PCR. […] Infected cells were incubated 24 h at 37° C. in 500 μL of complete DMEM containing 25 μM of either compounds or the same volume of DMSO (positive control). All samples were done in duplicate. After 24 h of incubation at 37° C., DNA was purified from the cell lysate with the QIAamp DNA Mini Kit (QIAGEN, Valencia, Calif.) following the manufacturer's instructions. TaqMan primers and probes for a common region of the HAdV5 were designed with the GenScript Real-Time PCR (TaqMan) Primer Design software (GenScript). […] Real-time PCR mixtures consisted of 9.5 μL of the purified DNA, AQ1 and AQ2 at a concentration of 200 nM each and Probe at a concentration of 50 nM in a total volume of 25 μL. The PCR cycling protocol was 95° C. for 3 min followed by 40 cycles of 95° C. for 10 s and 60° C. for 30 s. Human glyceraldehyde-3-phosphate dehydrogenase (GAPDH) gene was used as internal control. Oligonucleotides sequences for GAPDH and conditions were those previously reported by Henke-Gendo et al. (2012).
For quantification, gene fragments from hexon, and GAPDH were cloned into the pGEM-T Easy vector (Promega) and known concentrations of template were used to generate a standard curve in parallel for each experiment. All assays were performed in thermal cycler LightCycler® 96 System (Roche).
(§1) HAdV DNA Quantification by Real-Time PCR. […] All samples were done in duplicate. After 24 h of incubation at 37° C., DNA was purified from the cell lysate with the E.Z.N.A.® Tissue DNA Kit (Omega Bio-tek, Norcross, Ga.) following the manufacturer's instructions. TaqMan primers and probes for a common region of the HAdV5 were designed with the GenScript Real-Time PCR (TaqMan) Primer Design software (GenScript). […] Real-time PCR mixtures consisted of 9.5 μL of the purified DNA, AQ1 and AQ2 at a concentration of 200 nM each and Probe at a concentration of 50 nM in a total volume of 25 μL. The PCR cycling protocol was 95° C. for 3 min followed by 40 cycles of 95° C. for 10 s and 60° C. for 30 s. Human glyceraldehyde-3-phosphate dehydrogenase (GAPDH) gene was used as internal control. Oligonucleotides sequences for GAPDH and conditions were those previously reported by Henke-Gendo et al. (2012).
as §1, with “DNA” for “HAdV DNA”
Background: Quantitative PCR measures a nucleic acid by following its amplification.

Assay [2] deals with HAdV5-GFP. The experiment in a line: Plaque assay (inhibition of HAdV plaque formation). The note with it: for Selectivity index (SI): ratio of CC50 to IC50 in plaque assay; for inhibition at 10 µM: read-out: Plaque Assay (%) Inhibition (10 μM); for IC50: read-out: Plaque Assay IC50 (μM), HAdV5-GFP, low MOI, 293β5 cell line. In outline: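 Cells at 80-90% confluency infected with HAdV5-GFP at 0.06 vp/cell, rocked 2 h at 37° C, then washed with PBS. Compounds tested at 10 μM and in dose-response from 10 to 0.3 μM, included in the post-infection mixture.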

The test system of assay [3] is wild-type HAdV5. The experiment in a line: Nuclear-associated HAdV genomes (real-time PCR).
The subject of assay [4] is HAdV5-GFP. The experiment in a line: Entry assay (HAdV5-mediated GFP expression). The note with it: for inhibition at 50 µM: read-out: (%) Inhibition Entry Assay (50 μM). In outline: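 Human A549 cells (3×10^5/well) infected with HAdV5-GFP at 2000 vp/cell with compounds at 50 μM or in dose-response, in triplicate. Incubation 48 h at 37° C., 5% CO2. Standard infection curve from 2-fold virus dilutions without compound run in parallel.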

Setting [5] is: FIG. 4, concentrations by CC50 (2-50 μM).
[6] abbreviates: FIG. 3, 45 min post infection, concentrations by CC50 (2-50 μM).
Setting [7] is: A549, read-out: IC50 Entry Assay (μM), HAdV5-GFP, high MOI, A549 cell line.

Regarding `O=C(Nc1ccc([N+](=O)[O-])cc1F)c1cc(Cl)ccc1O` [Compound 11, 5-Chloro-N-(2-fluoro-4-nitrophenyl)-2-hydroxybenzamide], in assay [1] (setting [5]), the “inhibition of HAdV-5 DNA replication (qPCR)” value (shortened to “inhibition … (qPCR)”) is reported as “low inhibition”. In addition, in assay [2], the “Selectivity index (SI)” value is recorded as 218.2, the inhibition at 10 µM stood at 98.7 ± 1.9% and the IC50 worked out at 0.05 µM. In addition, in assay [3] (setting [6]), the “amount of nuclear-associated HAdV genomes versus DMSO” value is listed as “partially inhibited”. In addition, the inhibition at 50 µM in assay [4] (A549, 48 h) was found to be 92.4 ± 0.2%. Besides, the IC50 in assay [4] (setting [7]) worked out at 1.57 ± 0.97 µM.

As to `O=C(Nc1cc(F)cc(C(F)(F)F)c1)c1cc(Cl)ccc1O` [Compound 17, 5-Chloro-N-(3-fluoro-5-(trifluoromethyl)phenyl)-2-hydroxybenzamide], in assay [1] (setting [5]), the “inhibition … (qPCR)” value was “low inhibition”. In addition, in assay [2], the “Selectivity index (SI)” value came out at 666.7 and the inhibition at 10 µM is 100%. Further, the “amount of nuclear-associated HAdV genomes versus DMSO” value in assay [3] (setting [6]) is given as “no significant differences”. Besides, in assay [4] (A549, 48 h), the inhibition at 50 µM came out at 100%. Moreover, in assay [4] (setting [7]), the IC50 came to 2.23 ± 0.58 µM.

Regarding `CC(C)[C@H](NC(=O)c1cc(Cl)ccc1O)C(=O)Nc1ccc([N+](=O)[O-])cc1Cl` [Compound 58, (S)-5-Chloro-N-(1-((2-chloro-4-nitrophenyl)amino)-3-methyl-1-oxobutan-2-yl)-2-hydroxybenzamide], the “inhibition … (qPCR)” value in assay [1] (setting [5]) is reported as “low inhibition”. Besides, in assay [2], the “Selectivity index (SI)” value is given as 444.4 and the inhibition at 10 µM was 100%. Moreover, in assay [3] (setting [6]), the “amount of nuclear-associated HAdV genomes versus DMSO” value is on record as “no significant differences”. Moreover, the inhibition at 50 µM in assay [4] (A549, 48 h) is 81.8%. In assay [4] (setting [7]), the IC50 was determined as 11.2 µM.

In the case of `O=C(N[C@H](Cc1ccccc1)C(=O)Nc1ccc([N+](=O)[O-])cc1Cl)c1cc(Cl)ccc1O` [Compound 60, (R)-5-Chloro-N-(1-((2-chloro-4-nitrophenyl)amino)-1-oxo-3-phenylpropan-2-yl)-2-hydroxybenzamide], in assay [1] (setting [5]), the “inhibition … (qPCR)” value was “significant (p≤0.0001) inhibitory activity”. Further, in assay [2], the “Selectivity index (SI)” value was determined as 259.7, the inhibition at 10 µM was found to be 100% and the IC50 worked out at 0.3 µM. Also, the “amount of nuclear-associated HAdV genomes versus DMSO” value in assay [3] (setting [6]) was “partially inhibited”. In assay [4] (A549, 48 h), the inhibition at 50 µM is 68.6%. Moreover, in assay [4] (setting [7]), the IC50 was 9.7 µM.

For `CC1(Nc2ccc(NC(=O)c3cc(Cl)ccc3O)c(Cl)c2)CCCC1` [Compound 87, 5-Chloro-N-(2-chloro-4-((1-methylcyclopentyl)amino)phenyl)-2-hydroxybenzamide], in assay [1] (FIG. 6A, 10-fold plaque IC50), the “inhibition … (qPCR)” value is “moderate inhibition”. In assay [2], the “Selectivity index (SI)” value is reported as 580.7, the inhibition at 10 µM amounted to 100% and the IC50 was determined as 0.27 µM. The “amount of nuclear-associated HAdV genomes versus DMSO” value in assay [3] (FIG. 5A, 45 min post-infection, 10-fold plaque IC50) is “partially inhibited”. In addition, in assay [4] (A549, 48 h), the inhibition at 50 µM was 85.4%. Further, the IC50 in assay [4] (setting [7]) is 15.2 to 30.8 µM. For the same molecule, in assay [4] ({}), the IC50 came out at 15.2 ± 5.1 µM.

Regarding `O=C(NCC1CCCCC1)c1cc(Cl)ccc1O` [Compound 161, 5-Chloro-N-(cyclohexylmethyl)-2-hydroxybenzamide], in assay [1] (read-out: inhibition of HAdV-5 DNA replication (qPCR)), the inhibition at 7.8 µM is 50%. Besides, in assay [2], the “Selectivity index (SI)” value was over 100 and the inhibition at 10 µM stood at 100%. In assay [2] (read-out: EC50 (plaque assay)), the EC50 came to 0.78 µM. Besides, the “inhibition of accessibility of HAdV DNA to the nucleus” value in assay [3] (FIG. 5B, 45 min post-infection, 10-fold plaque IC50) was “more than 99%”. Besides, the inhibition at 50 µM in assay [4] (A549, 48 h) is 98.6 ± 14.8%. Besides, the EC50 in assay [4] (A549, 48 h, read-out: EC50 (entry assay, as worded in text)) worked out at 12.3 µM. Besides, in assay [4] (setting [7]), the IC50 came to 12.3 ± 4.8 µM.

The inhibition is the relative decrease from the control value, in per cent. What is called IC50 is the midpoint of a concentration-inhibition curve. Broadly, the EC50 is the concentration that produces a half-maximal response.
